# Measured values: US20260102387A1, “IMMUNOSUPPRESSIVE COMPOUNDS” (UNIVERSITÄT BASEL, priority 2022, published 2026)
# Columns and labels:
# coronin 1 promoter [1] = assay: Fluorescence-based screening assay: coronin 1 promoter driven GFP in RBL cells (microplate reader / microscopy); assay type: cell-based; settings: RBL; 5 μg/ml, 48 h, microplate reader, DMSO = 100; read-out: GFP values (%)
# Procedure: The murine coronin 1 promoter sequences of SEQ ID NO: 1-6 were each cloned into a plasmid lacking a promoter (promoterless) but containing a destabilized Green Fluorescence Protein (GFP) cassette. Rat Basophil Leukemia (RBL) cells were transfected with the plasmids, stable GFP expressing cells were enriched, incubated with various compounds and assessed for coronin 1 promoter inhibition by assessing green fluorescence values (FIG. 2).
# The plasmids were independently transfected into immune cells (Rat basophil Leukemia, RBL cells) to generate green and red fluorescent RBL cells that were subsequently enriched by means of flow cytometry. These cells were then mixed in equal ratio (1:1) and incubated in a 96 well plate at 100,000 cells/well in a volume of 200 μl of phenol red free RPMI supplemented with 8% fetal calf serum, L-glutamate and antibiotics (penicillin, […]) from available chemical libraries. At defined time points (8 h, 24 h and 48 h), the GFP and RFP fluorescence was measured using a 96 well microplate reader (Synergy, BioTek Instruments). […] Selected compounds show different levels of modulation of coronin 1 promoter driven GFP and CMV promoter driven RFP fluorescence. GFP and RFP fluorescence were analyzed with a microplate reader upon incubation with the top coronin 1 promoter inhibiting compounds. Shown are percentage of GFP reduction (left column) and percentage of RFP reduction (right column) for the compounds at 5 μg/ml concentration at 48 h. Cycloheximide (CHX) serves as positive control whereas media and DMSO serve as negative controls. […] Cells were imaged using a fluorescence microscope to validate fluorescence inhibition (FIG. 3A) and as well assess morphology and viability (in addition to GFP down regulation confirmation). In addition, quantitative Polymerase Chain Reaction (qPCR) for coronin 1 mRNA transcripts reveal reduction with compound 11 (FIG. 3B). The primers used for the qPCR on RBL cells are listed below as follows;
# [2] = tested on: early cytomegalovirus promoter; assay: Screening assay control: CMV promoter driven RFP in RBL cells (microplate reader); assay type: cell-based; settings: 5 μg/ml, 48 h, microplate reader, DMSO = 100, read-out: RFP values (%)
# Procedure: As an unrelated promoter, the early cytomegaloviral promoter element was cloned into a promoterless Red Fluorescence Protein (RFP) expression plasmid. Rat Basophil Leukemia (RBL) cells were transfected with the plasmid, stable RFP expressing cells enriched, incubated with various compounds and were assessed for red fluorescence values. Analyzing the inhibition of an unrelated promoter (in this case, early cytomegalovirus promoter) that drove Red Fluorescence Protein (RFP) expression assessed non-specificity of the compound under analysis.
# The plasmids were independently transfected into immune cells (Rat basophil Leukemia, RBL cells) to generate green and red fluorescent RBL cells that were subsequently enriched by means of flow cytometry. These cells were then mixed in equal ratio (1:1) and incubated in a 96 well plate at 100,000 cells/well in a volume of 200 μl of phenol red free RPMI supplemented with 8% fetal calf serum, L-glutamate and antibiotics (penicillin, streptomycin) and various compounds (3 and 5 μg/ml concentrations) from available chemical libraries. At defined time points (8 h, 24 h and 48 h), the GFP and RFP fluorescence was measured using a 96 well microplate reader (Synergy, BioTek Instruments). […] Selected compounds show different levels of modulation of coronin 1 promoter driven GFP and CMV promoter driven RFP fluorescence. GFP and RFP fluorescence were analyzed with a microplate reader upon incubation with the top coronin 1 promoter inhibiting compounds. Shown are percentage of GFP reduction (left column) and percentage of RFP reduction (right column) for the compounds at 5 μg/ml concentration at 48 h. Cycloheximide (CHX) serves as positive control whereas media and DMSO serve as negative controls. […] Cells were imaged using a fluorescence microscope to validate fluorescence inhibition (FIG. 3A) and as well assess morphology and viability (in addition to GFP down regulation confirmation). In addition, quantitative Polymerase Chain Reaction (qPCR) for coronin 1 mRNA transcripts reveal reduction with compound 11 (FIG. 3B). The primers used for the qPCR on RBL cells are listed below as follows;
# CMV promoter = assay: EC50 analysis for CMV promoter driven RFP inhibition (non-specific activity) by flow cytometry in RBL cells; assay type: cell-based, cytomegalovirus; settings: 48-65 h, read-out: EC50 RFP alteration
# Procedure: (§1) RBL cells expressing GFP under coronin 1 promoter and optionally with RBL cells expressing RFP under CMV promoter were mixed in equal numbers and incubated with the compounds at indicated concentrations for 48-65 h and analyzed by flow cytometry for alteration in coronin 1 promoter (GFP fluorescence), CMV promoter (RFP fluorescence) values. In addition, the cells were labelled with live-dead marker for assessing cell viability status by flow cytometry. Cycloheximide (CHX) serves as positive control and DMSO serves as negative controls. Effective Concentration (EC50) values for coronin 1 promoter inhibition via GFP fluorescence analysis, non-specific promoter inhibition via CMV promoter driven-RFP fluorescence analysis and cell viability via live/dead staining as a measure for toxicity in flow cytometry for compounds (10-22 and 50a-65a) are shown in Table 6 and Table 7. Based on the EC50 analysis of the inhibition of coronin 1 promoter driven GFP fluorescence the (4S,7R)-configurated eutomers were identified (Structures FIG. 9A-C). This is exemplified for compounds containing two stereocenters by eutomers 11c and 13a. […] Subsequent EC50 evaluations (Table 7) were performed with compound 13a as standard for relative potency normalized to a value of 1.00 (relative potency calculated as [EC50 GFP inhibition 13a]/[EC50 GFP inhibition compound of interest]).
# coronin 1 promoter [3] = assay: EC50 analysis for coronin 1 promoter driven GFP inhibition by flow cytometry in RBL cells; assay type: cell-based; settings: RBL, RBL cells, 48-65 h, flow cytometry
# Procedure: RBL cells that had been incubated with the indicated calcium channel blockers (amlodipine (3.125 μM) and verapamil (8 μM) concentrations for 48 h were analyzed by flow cytometry for any alteration in coronin 1 promoter driven GFP fluorescence. The results reveal no effect of calcium channel blockers on coronin 1 promoter activity (FIG. 4).
# as §1
# RBL cells = assay: Cell viability by live-dead staining (cytotoxicity), flow cytometry; assay type: cell-based, Rat; settings: Rattus norvegicus, RBL, cell viability via live/dead staining, 48-65 h, read-out: EC50 Toxicity
# Procedure: as §1
# [4] = tested on: BRD2, BRD3 and BRD4 proteins; settings: reported TPP data; cited from earlier work
smiles,measurement,setting,value
"CCSCCOC(=O)C1=C(C)NC2=C(C(=O)CC(c3ccccc3OC)C2)C1c1ccsc1 (stereo not shown) [Comp. 3, 2-(ethylthio)ethyl-7-(2-methoxyphenyl)-2-methyl-5-oxo-4-(3-thienyl)-1,4,5,6,7,8-hexahydro-3-quinolinecarboxylate]",activity at 5 µg/mL,coronin 1 promoter [1],63%
same,activity at 5 µg/mL,[2],80%
"COC(=O)C1=C(C)NC2=C(C(=O)CC(c3ccccc3)C2)C1c1cccc(O)c1 (stereo not shown) [Comp. 4, methyl 4-(3-hydroxyphenyl)-2-methyl-5-oxo-7-phenyl-1,4,5,6,7,8-hexahydroquinoline-3-carboxylate]",activity at 5 µg/mL,coronin 1 promoter [1],60%
same,activity at 5 µg/mL,[2],85%
"COC(=O)C1=C(C)NC2=C(C(=O)CC(c3cccs3)C2)C1c1cccc(O)c1 (stereo not shown) [Comp. 5, methyl-4-(3-hydroxyphenyl)-2-methyl-5-oxo-7-(2-thienyl)-1,4,5,6,7,8-hexahydro-3-quinolinecarboxylate]",activity at 5 µg/mL,coronin 1 promoter [1],74%
same,activity at 5 µg/mL,[2],108%
"CC1=C(C(=O)OCC2CCCO2)C(c2cccc([N+](=O)[O-])c2)C2=C(CC(c3cccs3)CC2=O)N1 (stereo not shown) [Comp. 6, tetrahydro-2-furanylmethyl-2-methyl-4-(3-nitrophenyl)-5-oxo-7-(2-thienyl)-1,4,5,6,7,8-hexahydro-3-quinolinecarboxylate]",activity at 5 µg/mL,coronin 1 promoter [1],68%
same,activity at 5 µg/mL,[2],75%
"COC(=O)C1=C(C)NC2=C(C(=O)CC(c3ccc(OC)cc3)C2)C1c1cccc(O)c1 (stereo not shown) [Comp. 8, methyl-4-(3-hydroxyphenyl)-7-(4-methoxyphenyl)-2-methyl-5-oxo-1,4,5,6,7,8-hexahydro-3-quinolinecarboxylate]",activity at 5 µg/mL,coronin 1 promoter [1],87%
same,activity at 5 µg/mL,[2],97%
"COC(=O)C1=C(C)NC2=C(C(=O)CC(c3ccccc3OC)C2)C1c1cccs1 (stereo not shown) [Comp. 9, methyl-7-(2-methoxyphenyl)-2-methyl-5-oxo-4-(2-thienyl)-1,4,5,6,7,8-hexahydro-3-quinolinecarboxylate]",activity at 5 µg/mL,coronin 1 promoter [1],58%
same,activity at 5 µg/mL,[2],97%
"COc1ccccc1C1CC(=O)C2=C(C1)NC(C)=C(C(=O)OCC1CCCO1)C2c1ccccc1F (stereo not shown) [Comp. 10, tetrahydro-2-furanylmethyl-4-(2-fluorophenyl)-7-(2-methoxyphenyl)-2-methyl-5-oxo-1,4,5,6,7,8-hexahydro-3-quinolinecarboxylate]",activity at 5 µg/mL,coronin 1 promoter [1],48%
same,EC50,CMV promoter,1000 nM
same,activity at 5 µg/mL,[2],110%
same,EC50,coronin 1 promoter [3],800 nM
same,EC50,RBL cells,> 7500 nM
"COc1ccccc1C1CC(=O)C2=C(C1)NC(C)=C(C(=O)OCC1CCCO1)C2c1cccc(O)c1 (stereo not shown) [Comp. 12, tetrahydro-2-furanylmethyl-4-(3-hydroxyphenyl)-7-(2-methoxyphenyl)-2-methyl-5-oxo-1,4,5,6,7,8-hexahydro-3-quinolinecarboxylate]",activity at 5 µg/mL,coronin 1 promoter [1],46%
same,EC50,CMV promoter,> 1000 nM
same,activity at 5 µg/mL,[2],153%
same,EC50,coronin 1 promoter [3],340 nM
same,EC50,RBL cells,> 3000 nM
"COC(=O)C1=C(C)NC2=C(C(=O)CC(c3ccc(Cl)cc3)C2)C1c1cccc(O)c1 (stereo not shown) [Comp. 22, methyl 7-(4-chlorophenyl)-4-(3-hydroxyphenyl)-2-methyl-5-oxo-1,4,5,6,7,8-hexahydroquinoline-3-carboxylate]",activity at 5 µg/mL,coronin 1 promoter [1],55%
same,activity at 5 µg/mL,[2],70%
COc1cc2c(cc1-c1c(C)noc1C)ncc1[nH]c(=O)n([C@H](C)c3ccccn3)c12 [IBET-151],"thermal stabilization of BRD2, BRD3 and BRD4 proteins",[4],thermal stabilization
CC(=O)Nc1c(F)cc(C(=O)N[C@H]2CC[C@H](O)CC2)cc1O[C@@H](C)c1ccccc1 [IBET-BD2],"thermal stabilization of BRD2, BRD3 and BRD4 proteins",[4],thermal stabilization
Cc1sc2c(c1C)C(c1ccc(Cl)cc1)=N[C@@H](CC(=O)OC(C)(C)C)c1nnc(C)n1-2 [JQ1],"thermal stabilization of BRD2, BRD3 and BRD4 proteins",[4],thermal stabilization
COc1cc(OC)c2c(=O)[nH]c(-c3cc(C)c(OCCO)c(C)c3)nc2c1 [RVX-208],"thermal stabilization of BRD2, BRD3 and BRD4 proteins",[4],thermal stabilization
"COc1ccccc1C1CC(=O)C2=C(C1)NC(C)=C(C(=O)OC1CCOCC1)C2c1cccc(O)c1 (stereo not shown) [compound 13, tetrahydro-2H-pyran-4-yl-4-(3-hydroxyphenyl)-7-(2-methoxyphenyl)-2-methyl-5-oxo-1,4,5,6,7,8-hexahydro-3-quinolinecarboxylate]",EC50,CMV promoter,> 2500 nM
same,EC50,coronin 1 promoter [3],120 nM
same,EC50,RBL cells,> 2500 nM
"COc1ccccc1C1CC(=O)C2=C(C1)NC(C)=C(C(=O)OCC1CCOCC1)C2c1cccc(O)c1 (stereo not shown) [compound 18, (tetrahydro-2H-pyran-4-yl)methyl 4-(3-hydroxyphenyl)-7-(2-methoxyphenyl)-2-methyl-5-oxo-1,4,5,6,7,8-hexahydroquinoline-3-carboxylate]",EC50,CMV promoter,> 2500 nM
same,EC50,coronin 1 promoter [3],200 nM
same,EC50,RBL cells,> 2500 nM
